Values joined by “and” are separate entries in the source; they are usually repeats but may differ in a detail not shown here. Equal values may be shown once. Residues, ends and D or L forms follow the SMILES beside them. No end group written: not given here. *: point of attachment. Palmitoyl = CCCCCCCCCCCCCCCC(=O)*
What was measured:
S. aureus ATCC 6538 = assay: CFU-assay, S. aureus-cidal activity; format: cell-based, Staphylococcus aureus
Procedure: Thus, within the present invention, the antimicrobial activity is generally measured in nutrient deficient 10 mM sodium phosphate buffer pH 5.5, containing 0.25% glucose, using the CFU-assay according to Steinberg and Lehrer, 1997 (supra), unless otherwise indicated. The CFU-assay allows determination of the minimal bactericidal concentration (MBC, e.g., MBC90 and MBC100; i.e. the concentration of compound required to achieve a specified reduction in bacterial cell number (microbial death or killing)).
Various peptides corresponding to repeat domains of hornerin (HR 1-11: HRNR 2606-2628; HR 1-17: HRNR 2656-2684 and HR 1-18: HRNR 2656-2677) were tested for P. aeruginosa ATCC 10145-cidal activity in 10 mM Na-phosphate buffer pH 5.5, containing 0.25% glucose by counting the numbers of colonies of surviving bacteria at serial, twofold dilutions from 300 μg/ml down to 19 ng/ml of each peptide (CFU-assay; Steinberg and Lehrer, 1997, Methods Mol. Biol. 78, 169-186).
Staphylococcus aureus is a major skin pathogen, which causes skin infections, in particular in atopic dermatitis. The sensitivity of S. aureus ATCC 6538 towards several CIDAMPs was assessed using the CFU-assay as above (see Example 1). HR 1-18, which lacks S. aureus.-bactericidal activity, is converted in a S. aureus-cidal peptide, when all His are replaced by Arg (HR 1-18 4H-4R; see Table 13 and FIG. 9). […] HR 1-18 4H-4R is rich in Ser and Arg and contains a single Leu residue. When this single Leu was replaced by Gly in S. aureus-cidal HR 1-18 4H-4R (forming HR 1-18 4H-4R/L-G), S. aureus-cidal activity was abolished at both pH 7.0 and pH 5.5 (see Table 13 and FIG. 9).

P. aeruginosa ATCC 10145 = assay: CFU-assay, P. aeruginosa-cidal activity; format: cell-based, Pseudomonas aeruginosa
C. albicans ATCC 928 = conditions: for Antifungal activity, C. albcans ATCC90028: standard conditions at pH 7.4, activity at concentration <32 pg/ml
C. neoformans = conditions: for Antifungal activity, C. neoformans ATCC 208821: standard conditions at pH 7.4, activity at concentration <32 pg/ml
[1] = tested on: Burkholderia cepacia ATCC 25416; assay: CFU-assay, Burkholderia cepacia-cidal activity; format: cell-based
[2] = tested on: methicillin-resistant S. aureus strain (ATCC 43300); format: cell-based, Staphylococcus aureus; conditions: ATCC 43300, 18 h
Procedure: Furthermore, sensitivity of a methicillin-resistant S. aureus strain (ATCC 43300) was investigated for palmitoylated CIDAMPs in a microtiter plate screening model, with incubation in Mueller-Hinton medium at 37° C. for 18 h using resazurin as a marker for cell viability.
A sample of each culture was then diluted 40-fold in fresh broth and incubated at 37° C. for 1.5-3 h. […] All the plates were covered and incubated at 37° C. for 18 h.
Inhibition of bacterial growth was determined using resazurin as a marker for cell viability. Resazurin was added to each well, at 0.001% final concentration, and plates incubated at 37° C. for 2 h. Fluorescence intensity was measured, using F (top read), ex 560/10 nm, em 590/10 nm, using a Tecan M1000 Pro monochromator plate reader.

[3] = Cytotoxicity (resazurin) assay
Procedure: For the cytotoxicity (resazurin) assay, HEK293 cells were counted manually in a Neubauer haemocytometer and plated at a density of 4000 cells/well into each well of the 384-well plates containing the 25×(2 μl) concentrated compounds. The medium used was Dulbecco's modified eagle medium (DMEM) supplemented with 10% foetal bovine serum (FBS). Cells were incubated together with the compounds for 20 h at 37° C., 5% CO2. To measure cytotoxicity, 5 μl (equals 100 μM final) resazurin was added to each well after incubation, and incubated for further 3 h at 37° C. with 5% CO2.
After final incubation fluorescence intensity was measured as F ex 560/10 nm, em 590/10 nm (F560/590) using a Tecan M1000 Pro monochromator plate reader. […] The concentration dependent percentage cytotoxicity was fitted to a dose response function (using Pipeline Pilot) and CC50 values determined.

Hemolysis assay = format: cell-based; conditions: for HC50 at 1 h: human, washed erythrocytes from EDTA-blood, pH 7.4
Procedure: For the hemolysis assays EDTA-blood was centrifuged at 800×g for 10 min, and the plasma and buffy coat were removed. The erythrocytes were washed three times and resuspended in 5% PBS, pH 7.4. The cells were then incubated with end-over-end rotation for 1 h at 37° C. in the presence of different concentrations of peptides (0, 3, 10, 30, 60 μm). 0.1% Triton X-100 (Sigma-Aldrich) served as positive control. The samples were then centrifuged at 800×g for 10 min.
The absorbance of hemoglobin release was measured at 540 nm and is expressed as % of Triton X-100-induced hemolysis. These values of triplicates were plotted with Graph Pad Prism 4 as a dose response curve and the CC50 was determined.

| Molecule | MBC90 (S. aureus ATCC 6538; pH 5.5, 0.25% glucose) | MBC100 (S. aureus ATCC 6538; pH 5.5, 0.25% glucose) | Antifungal activity, C. albcans ATCC90028 (C. albicans ATCC 928) | Antifungal activity, C. neoformans ATCC 208821 (C. neoformans) | MIC, S. aureus ATCC 43300 [2] | CC50 [3] | HC50 at 1 h (Hemolysis assay) | HC50 (Hemolysis assay) | further results |
| --- | --- | --- | --- | --- | --- | --- | --- | --- | --- |
| GRRGGGGGRGGGRGGRGGGGGR (Modified peptide derived from human hornerin (HR 1-18 GR)) | >300 µg/mL | >300 µg/mL | I (I-inactive) | I (I-inactive) | – | – | – | – | MBC90 (P. aeruginosa ATCC 10145; pH 5.0, 0.25% glucose): <0.019 µg/mL; MBC100 (P. aeruginosa ATCC 10145; pH 5.0, 0.25% glucose): 0.075 µg/mL; MBC90 (P. aeruginosa ATCC 10145; pH 5.5, 0.25% glucose): <0.006 µM; MBC100 (P. aeruginosa ATCC 10145; pH 5.5, 0.25% glucose): 0.075 μg/ml and 0.04 μM |
| Pal-GRRGSGLGRSSSRGGRGSGSGR (Palmitoyl-GRRGSGLGRSSSRGGRGSGSGR) [Pal-HR 1-18 4H-4R] | – | – | – | – | – | – | – | – | MBC90 ([1]; pH 7.3, 0.25% glucose): 75 µg/mL; MBC100 ([1]; pH 7.3, 0.25% glucose): 300 µg/mL; MBC90 ([1]; pH 7.3, 1% TSB): 75 µg/mL; MBC100 ([1]; pH 7.3, 1% TSB): 150 µg/mL |
| N=C(N)NCCC[C@H](NC(=O)[C@H](CCCNC(=N)N)NC(=O)[C@H](CS)NC(=O)[C@H](CCCNC(=N)N)NC(=O)[C@H](Cc1c[nH]cn1)NC(=O)[C@H](CO)NC(=O)[C@H](CCCNC(=N)N)NC(=O)[C@H](CS)NC(=O)[C@H](CS)NC(=O)[C@H](CCCNC(=N)N)NC(=O)[C@H](Cc1c[nH]cn1)NC(=O)[C@H](Cc1c[nH]cn1)NC(=O)[C@@H](N)CO)C(=O)O [LCE3B5668] (H-SHHRCCRSHRCRR-OH; N-terminus and C-terminus assumed) | – | – | – | – | ≥32 µg/mL | – | – | – | – |
| N=C(N)NCCC[C@H](NC(=O)[C@H](CCCNC(=N)N)NC(=O)[C@H](CS)NC(=O)[C@H](CCCNC(=N)N)NC(=O)[C@H](Cc1c[nH]cn1)NC(=O)[C@H](CO)NC(=O)[C@H](CCCNC(=N)N)NC(=O)[C@H](CS)NC(=O)[C@H](CS)NC(=O)[C@H](CCCNC(=N)N)NC(=O)[C@H](Cc1c[nH]cn1)NC(=O)[C@H](Cc1c[nH]cn1)NC(=O)[C@@H](N)CO)C(=O)O [LCE3B56-68] (H-SHHRCCRSHRCRR-OH; N-terminus and C-terminus assumed) | 0.075 µg/mL | >150 µg/mL | I (I-inactive) | A (A-active) | – | > 32 µg/mL and > 18.9 µM | > 113 µM | – | S. aureus MBC90 (S. aureus ATCC 6538; pH 5.5): 0.044 µM; S. aureus MBC100 (S. aureus ATCC 6538; pH 5.5): >88.7 µM; max.killing (S. aureus ATCC 6538; pH 5.5, 0.25% glucose): max.killing: 99.3%; MBC90 (S. aureus ATCC 6538; pH 5.5, 0.25% glucose (text)): 0.044 µM; CC50 (Hemolysis assay): > 300 µg/mL |
| CCCCCCCCCCCCCCCC(=O)NCC(=O)N[C@@H](CCCNC(=N)N)C(=O)N[C@@H](CCCNC(=N)N)C(=O)NCC(=O)NCC(=O)N[C@@H](CCCNC(=N)N)C(=O)O [Pal-GR6, Pal-GRRGGR] (HELM PEPTIDE1{[CCCCCCCCCCCCCCCC(=O)[*:2]].G.R.R.G.G.R}$$$$V2.0) | – | – | – | – | ≥16 µg/mL | > 32 µg/mL | – | > 300 µg/mL | MIC, C. neoformans ATCC 208821 (C. neoformans): ≥16 µg/mL |
| CCCCCCCCCCCCCCCC(=O)NCC(=O)N[C@@H](CCCNC(=N)N)C(=O)N[C@@H](CCCNC(=N)N)C(=O)NCC(=O)NCC(=O)N[C@@H](CCCNC(=N)N)C(=O)NCC(=O)NCC(=O)N[C@@H](CCCNC(=N)N)C(=O)O [Pal-GR9] (HELM PEPTIDE1{[CCCCCCCCCCCCCCCC(=O)[*:2]].G.R.R.G.G.R.G.G.R}$$$$V2.0) | – | – | – | – | ≥8 µg/mL | > 32 µg/mL and > 27.4 µM | > 257 µM | > 300 µg/mL | MIC (C. albicans ATCC 928; ATCC 928, 18 h, pH 7.4): 1 to 32 µg/mL |
